Assay results published in PMC12648657, “Sc(III) Complexes of 1,4,7-Triazacyclononane-1,4,7-triacetic Acid and Its Monoamides” (Inorganic Chemistry, 2025).

Assays:
[1] = comparison table; literature value; cited from earlier work
[2] = Potentiometric determination of stability constants of Sc^III complexes; assay type: physicochemical; details: for log K, [Sc(L)] + HL ↔ [M(HL)(L)]: I = 0.1 M NMe4Cl, coordination of second ligand molecule
Protocol: Potentiometry was carried out according to the previously published procedures; for the preparation of stock solutions and chemicals, equipment, electrode system calibration, titration procedures and data treatment, see refs – . Throughout the paper, pH means −log[H^+]. The protonation and stability constants were determined in 0.1 M (NMe4)Cl at 25.0 °C with pK w = 13.81. The Sc^III–H3nota system was studied by in-cell titrations from data obtained in the pH range 1.6–12 with ∼40 points per titration and four parallel titrations (c L = 0.004 M, c Sc = 0.004 or 0.002 M). The Sc^III–H2 L ^1 and Sc^III–H2 L ^2 systems were studied by a combination of the out-of-cell and in-cell methods. The out-of-cell method was performed at 1:1 ligand-to-metal ratio (c L = c Sc = 0.004 M, pH 1.5–5.0, 15–25 points per titration), and the in-cell method was performed at 1:1 and 2:1 ligand-to-metal ratios (c L = c Sc = 0.004, pH 5.0–12.0 or until precipitation of hydroxide, 15–20 points per titration; or c L = 0.004 M, c M = 0.002 M, pH 2.0–11.5, ∼40 points per titration). […] Stability constants for the Sc^III–OH^– system were taken from the literature. Protonation constants of ligands were adopted from literature–H3nota: 13.17, 5.74, 3.22, 1.96, 0.70; H2 L ^1 : 13.03, 4.24, 2.04, 0.67; H2 L ^2 : 12.93, 4.91, 2.48, 0.92.
High thermodynamic stability of complexes is an important property of metal complexes used in radio medicine. Thus, stability constants of the Sc^III complexes with the studied chelators were determined by potentiometry. Complexation of Sc^III by H3nota was fast, and thus, it was studied by the direct titration technique (in-cell method). Complexation of Sc^III by H2 L ^1 and H2 L ^2 was slower in the acidic region (pH < 3) and, thus, the batch titrations (out-of-cell method) had to be applied. In addition, the systems were studied in-cell in the neutral and weakly alkaline regions. The strongly alkaline region cannot be studied in the Sc^III–H2 L ^1 and Sc^III–H2 L ^2 systems due to decomposition of the complexes and precipitation of Sc^III hydroxide.

[3] = Solution stability of Sc^III complexes (alkaline solution, excess oxalate); assay type: physicochemical; details: slowly decompose in strongly alkaline solutions or under excess oxalate, yielding insoluble Sc^III oxalate or hydroxide
Protocol: The NMR experiments were carried out on the Bruker Avance III 600 (with a cryoprobe), Bruker Avance III HD 400 or Varian VNMRS 300 MHz or Varian Unity Inova-400 spectrometers in 5 mm tubes. Chemical shifts are given in ppm, and the coupling constants are in Hz. All NMR spectra were collected at 25 °C. The shifts were referenced with external standards: 0.1% tBuOH in D2O (^1H δ 1.25 ppm, ^13C δ 30.30 ppm). External reference for ^45Sc was 0.1 M solution of Sc(ClO4)3 in 1 M aq. HClO4. The pH of samples was adjusted with diluted aq. HCl or aq. LiOH (∼0.5%), or maintained with 0.25 M imidazole/HCl buffer. Binary complexes were prepared by mixing solid ligands (typically at a final concentration of 25 mM) with standardized ScCl3 solution in Sc/L 1:1 or 1:2 molar ratios. Ternary complexes with oxalate anions were studied by mixing a lithium(I) oxalate aq. solution (25 mM) and variable amounts of stock solutions (200 mM) of Sc^III complexes with the studied ligands.

[4] = comparison table; literature value; cited from earlier work; remark: listed apart in the source
[5] = comparison table; literature value; cited from earlier work; remark: listed apart in the source
[6] = comparison table; literature value; cited from earlier work; remark: listed apart in the source
[7] = comparison table; literature value; cited from earlier work; remark: listed apart in the source
[8] = Sc^III complexes of other ligands; literature values; cited from earlier work

Row | Overall stability constant logβ, Sc + L ⇄ [Sc(L)] ([2]; I = 0.1M (NMe4)Cl, 25 °C) | log K, Sc + L ↔ [Sc(L)] ([2]; I = 0.1M (NMe4)Cl, 25 °C) | log K, [Sc(L)(OH)] + H+ ↔ [M(L)(H2O)] ([2]; I = 0.1M (NMe4)Cl, 25 °C) | log K, [Sc(L)] + HL ↔ [M(HL)(L)] ([2]; 25 °C) | Structure (SMILES) | Stability constant log K ML, Cu^II [1] | Stability constant log K ML, Zn^II [4] | log K [M(L)] of Sc^III complex [8] | further results
1 | 16.64(1) | 16.64 | 7.36 | 2.86 | CCNC(=O)CN1CCN(CC(=O)O)CCN(CC(=O)O)CC1 [H2 L ^1] | 21.37 | 18.89 | – | Stability of Sc^III complex in solution [3]: limited stability
2 | 19.50(1) | 19.50 | 7.77 | 3.11 | O=C(O)CN1CCN(CC(=O)O)CCN(CC(=O)O)CC1 [H3nota, 1,4,7-Triazacyclononane-1,4,7-triacetic Acid] | 23.33 | 22.32 | – | Stability constant log K ML, Pb^II [5]: 18.18; Overall stability constant logβ, Sc + 2 L + H+ ⇄ [Sc(HL)(L)] ([2]; I = 0.1M (NMe4)Cl, 25 °C): 35.78(6); Overall stability constant logβ, Sc + L + H2O ⇄ [Sc(L)(OH)] + H+ ([2]; I = 0.1M (NMe4)Cl, 25 °C): 11.73(2); Stability constant log K ML, Sc^III ([2]; comparison table): 19.50; Stability constant log K ML, Ga^III [6]: 29.60; Stability constant log K ML, Cd^II [7]: 17.87
3 | – | – | – | – | O=C([O-])CN1CCN(CC(=O)[O-])CCN(Cc2cccc(C(=O)[O-])n2)CC1.[Sc+3] [[Sc(mpatcn)]] | – | – | 21–26 | –
4 | – | – | – | – | O=C([O-])CN(CCN(CC(=O)[O-])CC(=O)[O-])CCN(CC(=O)[O-])CC(=O)[O-].[Sc+3] [[Sc(dtpa)]^2–] | – | – | 27.43 | –
5 | – | – | – | – | O=C(O)CN1CCN(Cc2cccc(C(=O)O)n2)CCN(CP(=O)(O)O)CC1 [H4mpatcn-P] | – | – | 21–26 | –
6 | – | – | – | – | O=C(O)CN1CCN(CC(=O)O)CCN(Cc2cccc(P(=O)(O)O)n2)CC1 [H4mpatcn-PyP] | – | – | 21–26 | –
